Results reported in PubChem BioAssay AID588440 (The Scripps Research Institute Molecular Screening Center, 2011).
Calls of active or inactive are those of the source.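 The calls were made as follows: active = half-maximal cytotoxic concentration at or below 10 µM; inactive = the rest.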

Tested on: HEK293 LDH release cytotoxicity, resorufin fluorescence
Test: HEK cell cytotoxicity by LDH release, dose response, cytotoxicity control for IDE activator project, fluorescence, HEK cells (AID 588440)

| Compound | CC50 |
| --- | --- |
| C#CCOCCOCCOCCNc1nc(N2CCN(C(=O)CCCCCCCCCCNC(=O)Cn3cc(CCCCCN)nn3)CC2)nc(N2CCN(C(=O)CCCCCCCCCCNC(=O)Cn3cc(C[C@@H](C)O)nn3)CC2)n1 | 16.4 µM (inactive) |
| C#CCOCCOCCOCCNc1nc(N2CCN(C(=O)CCCCCCCCCCNC(=O)[C@H](CO)n3cc(CCCSC)nn3)CC2)nc(N2CCN(C(=O)CCCCCCCCCCNC(=O)[C@H](CCCCN)n3cc(CCO)nn3)CC2)n1 | 20.8 µM (inactive) |
| C#CCOCCOCCOCCNc1nc(N2CCN(C(=O)CCCCCCCCCCNC(=O)Cn3cc(CCCCCN)nn3)CC2)nc(N2CCN(C(=O)CCCCCCCCCCNC(=O)[C@H](CO)n3cc(CCCSC)nn3)CC2)n1 | 17.4 µM (inactive) |
| C#CCOCCOCCOCCNc1nc(N2CCN(C(=O)CCCCCCCCCCNC(=O)[C@H](CCCCN)n3cc(CCO)nn3)CC2)nc(N2CCN(C(=O)CCCCCCCCCCNC(=O)[C@H](CCCN=C(N)N)n3cc(C[C@@H](C)CC)nn3)CC2)n1 | 5.63 µM |
| C#CCOCCOCCOCCNc1nc(N2CCN(C(=O)CCCCCCCCCCNC(=O)Cn3cc(C[C@@H](C)O)nn3)CC2)nc(N2CCN(C(=O)CCCCCCCCCCNC(=O)[C@H](CCCN=C(N)N)n3cc(C[C@@H](C)CC)nn3)CC2)n1 | 7.28 µM |
| C#CCOCCOCCOCCNc1nc(N2CCN(C(=O)CCCCCCCCCCNC(=O)Cn3cc(CCCCCN)nn3)CC2)nc(N2CCN(C(=O)CCCCCCCCCCNC(=O)[C@H]([C@@H](C)CC)n3cc(CCCCCN)nn3)CC2)n1 | 5.97 µM |
| C#CCOCCOCCOCCNc1nc(N2CCN(C(=O)CCCCCCCCCCNC(=O)[C@@H](CCSC)n3cc(CCO)nn3)CC2)nc(N2CCN(C(=O)CCCCCCCCCCNC(=O)[C@H](CO)n3cc(CCCCCN)nn3)CC2)n1 | 12.6 µM (inactive) |
| C#CCOCCOCCOCCNc1nc(N2CCN(C(=O)CCCCCCCCCCNC(=O)[C@H]([C@@H](C)CC)n3cc(CCCCN=C(N)N)nn3)CC2)nc(N2CCN(C(=O)CCCCCCCCCCNC(=O)[C@@H]([C@H](C)O)n3cc(C)nn3)CC2)n1 | 6.37 µM |
| C#CCOCCOCCOCCNc1nc(N2CCN(C(=O)CCCCCCCCCCNC(=O)[C@H]([C@@H](C)CC)n3cc(CCCCCN)nn3)CC2)nc(N2CCN(C(=O)CCCCCCCCCCNC(=O)[C@H]([C@@H](C)CC)n3cc(CCCCN=C(N)N)nn3)CC2)n1 | 2.07 µM |
